# Test results taken from the supplement of paper PMC8882468.
# System: HCI-008 (organoid from a HER2-enriched breast cancer xenograft)
# Experiment: CTG-3D luminescence at 96 h relative to day-0 seeding control (ratio to day 0); higher = more growth / less cytotoxicity; PDxO 3D drug screen (set 2), 96 h, CTG-3D normalised to day-0 seeding control.
# Details: 0.1 µM; days in culture: 354
row,Structure (SMILES),CTG-3D luminescence at 96 h
1,Nc1cc(C(F)(F)F)c(-c2cc(N3CCOCC3)nc(N3CCOCC3)n2)cn1 [buparlisib],1.46

# Same assay, conditions: 0.1 µM; days in culture: 382
row,Structure (SMILES),CTG-3D luminescence at 96 h
1,CC(C)n1nc(-c2ccc3oc(N)nc3c2)c2c(N)ncnc21 [sapanisertib],0.751
2,C[C@@H](Nc1cc(F)cc(F)c1)c1cc(C(=O)N(C)C)cc2c(=O)cc(N3CCOCC3)oc12 [AZD-8186],1.44
3,CC(=O)c1c(C)c2cnc(Nc3ccc(N4CCNCC4)cn3)nc2n(C2CCCC2)c1=O [palbociclib],1.83
4,Cc1c(CN2CCN(C(=O)[C@H](C)O)CC2)sc2c(N3CCOCC3)nc(-c3cnc(N)nc3)nc12 [apitolisib],0.687
5,CS(=O)(=O)CCNCc1ccc(-c2ccc3ncnc(Nc4ccc(OCc5cccc(F)c5)c(Cl)c4)c3c2)o1 [lapatinib],1.52
6,CCOc1ccn(-c2ccc(F)cc2)c(=O)c1C(=O)Nc1ccc(Oc2ccnc(N)c2Cl)c(F)c1 [ASLAN002],1.09
7,Nc1cc(C(F)(F)F)c(-c2cc(N3CCOCC3)nc(N3CCOCC3)n2)cn1 [buparlisib],1.71

# Same assay, conditions: 1 µM; days in culture: 325
row,Structure (SMILES),CTG-3D luminescence at 96 h
1,CC(C)n1nc(-c2ccc3oc(N)nc3c2)c2c(N)ncnc21 [sapanisertib],0.826
2,C[C@@H](Nc1cc(F)cc(F)c1)c1cc(C(=O)N(C)C)cc2c(=O)cc(N3CCOCC3)oc12 [AZD-8186],3.65
3,CC(=O)c1c(C)c2cnc(Nc3ccc(N4CCNCC4)cn3)nc2n(C2CCCC2)c1=O [palbociclib],3.58
4,Cc1c(CN2CCN(C(=O)[C@H](C)O)CC2)sc2c(N3CCOCC3)nc(-c3cnc(N)nc3)nc12 [apitolisib],0.742
5,CS(=O)(=O)CCNCc1ccc(-c2ccc3ncnc(Nc4ccc(OCc5cccc(F)c5)c(Cl)c4)c3c2)o1 [lapatinib],2.32
6,CCOc1ccn(-c2ccc(F)cc2)c(=O)c1C(=O)Nc1ccc(Oc2ccnc(N)c2Cl)c(F)c1 [ASLAN002],3.54
7,Nc1cc(C(F)(F)F)c(-c2cc(N3CCOCC3)nc(N3CCOCC3)n2)cn1 [buparlisib],1.17

# Same assay, conditions: 1 µM; days in culture: 340
row,Structure (SMILES),CTG-3D luminescence at 96 h
1,CC(C)n1nc(-c2ccc3oc(N)nc3c2)c2c(N)ncnc21 [sapanisertib],0.593
2,C[C@@H](Nc1cc(F)cc(F)c1)c1cc(C(=O)N(C)C)cc2c(=O)cc(N3CCOCC3)oc12 [AZD-8186],1.62
3,CC(=O)c1c(C)c2cnc(Nc3ccc(N4CCNCC4)cn3)nc2n(C2CCCC2)c1=O [palbociclib],2.37
4,Cc1c(CN2CCN(C(=O)[C@H](C)O)CC2)sc2c(N3CCOCC3)nc(-c3cnc(N)nc3)nc12 [apitolisib],0.415
5,CS(=O)(=O)CCNCc1ccc(-c2ccc3ncnc(Nc4ccc(OCc5cccc(F)c5)c(Cl)c4)c3c2)o1 [lapatinib],2.47
6,CCOc1ccn(-c2ccc(F)cc2)c(=O)c1C(=O)Nc1ccc(Oc2ccnc(N)c2Cl)c(F)c1 [ASLAN002],1.83
7,Nc1cc(C(F)(F)F)c(-c2cc(N3CCOCC3)nc(N3CCOCC3)n2)cn1 [buparlisib],1.56

# Same assay, conditions: 1 µM; days in culture: 354
row,Structure (SMILES),CTG-3D luminescence at 96 h
1,CC(C)n1nc(-c2ccc3oc(N)nc3c2)c2c(N)ncnc21 [sapanisertib],0.502
2,C[C@@H](Nc1cc(F)cc(F)c1)c1cc(C(=O)N(C)C)cc2c(=O)cc(N3CCOCC3)oc12 [AZD-8186],1.26
3,CC(=O)c1c(C)c2cnc(Nc3ccc(N4CCNCC4)cn3)nc2n(C2CCCC2)c1=O [palbociclib],1.11
4,Cc1c(CN2CCN(C(=O)[C@H](C)O)CC2)sc2c(N3CCOCC3)nc(-c3cnc(N)nc3)nc12 [apitolisib],0.285
5,CS(=O)(=O)CCNCc1ccc(-c2ccc3ncnc(Nc4ccc(OCc5cccc(F)c5)c(Cl)c4)c3c2)o1 [lapatinib],1.52
6,CCOc1ccn(-c2ccc(F)cc2)c(=O)c1C(=O)Nc1ccc(Oc2ccnc(N)c2Cl)c(F)c1 [ASLAN002],1.54
7,Nc1cc(C(F)(F)F)c(-c2cc(N3CCOCC3)nc(N3CCOCC3)n2)cn1 [buparlisib],0.578

# Same assay, conditions: 1 µM; days in culture: 382
row,Structure (SMILES),CTG-3D luminescence at 96 h
1,CC(C)n1nc(-c2ccc3oc(N)nc3c2)c2c(N)ncnc21 [sapanisertib],0.282
2,C[C@@H](Nc1cc(F)cc(F)c1)c1cc(C(=O)N(C)C)cc2c(=O)cc(N3CCOCC3)oc12 [AZD-8186],1.16
3,CC(=O)c1c(C)c2cnc(Nc3ccc(N4CCNCC4)cn3)nc2n(C2CCCC2)c1=O [palbociclib],1.16
4,Cc1c(CN2CCN(C(=O)[C@H](C)O)CC2)sc2c(N3CCOCC3)nc(-c3cnc(N)nc3)nc12 [apitolisib],0.13
5,CS(=O)(=O)CCNCc1ccc(-c2ccc3ncnc(Nc4ccc(OCc5cccc(F)c5)c(Cl)c4)c3c2)o1 [lapatinib],1.25
6,CCOc1ccn(-c2ccc(F)cc2)c(=O)c1C(=O)Nc1ccc(Oc2ccnc(N)c2Cl)c(F)c1 [ASLAN002],0.767
7,Nc1cc(C(F)(F)F)c(-c2cc(N3CCOCC3)nc(N3CCOCC3)n2)cn1 [buparlisib],0.652

# Same assay, conditions: 10 µM; days in culture: 325
row,Structure (SMILES),CTG-3D luminescence at 96 h
1,CC(C)n1nc(-c2ccc3oc(N)nc3c2)c2c(N)ncnc21 [sapanisertib],0.32
2,C[C@@H](Nc1cc(F)cc(F)c1)c1cc(C(=O)N(C)C)cc2c(=O)cc(N3CCOCC3)oc12 [AZD-8186],1.03
3,CC(=O)c1c(C)c2cnc(Nc3ccc(N4CCNCC4)cn3)nc2n(C2CCCC2)c1=O [palbociclib],2.05
4,Cc1c(CN2CCN(C(=O)[C@H](C)O)CC2)sc2c(N3CCOCC3)nc(-c3cnc(N)nc3)nc12 [apitolisib],0.507
5,CS(=O)(=O)CCNCc1ccc(-c2ccc3ncnc(Nc4ccc(OCc5cccc(F)c5)c(Cl)c4)c3c2)o1 [lapatinib],0.898
6,CCOc1ccn(-c2ccc(F)cc2)c(=O)c1C(=O)Nc1ccc(Oc2ccnc(N)c2Cl)c(F)c1 [ASLAN002],2.48
7,Nc1cc(C(F)(F)F)c(-c2cc(N3CCOCC3)nc(N3CCOCC3)n2)cn1 [buparlisib],0.647

# Same assay, conditions: 10 µM; days in culture: 354
row,Structure (SMILES),CTG-3D luminescence at 96 h
1,CC(C)n1nc(-c2ccc3oc(N)nc3c2)c2c(N)ncnc21 [sapanisertib],0.229
2,C[C@@H](Nc1cc(F)cc(F)c1)c1cc(C(=O)N(C)C)cc2c(=O)cc(N3CCOCC3)oc12 [AZD-8186],0.634
3,CC(=O)c1c(C)c2cnc(Nc3ccc(N4CCNCC4)cn3)nc2n(C2CCCC2)c1=O [palbociclib],0.979
4,Cc1c(CN2CCN(C(=O)[C@H](C)O)CC2)sc2c(N3CCOCC3)nc(-c3cnc(N)nc3)nc12 [apitolisib],0.344
5,CS(=O)(=O)CCNCc1ccc(-c2ccc3ncnc(Nc4ccc(OCc5cccc(F)c5)c(Cl)c4)c3c2)o1 [lapatinib],0.935
6,CCOc1ccn(-c2ccc(F)cc2)c(=O)c1C(=O)Nc1ccc(Oc2ccnc(N)c2Cl)c(F)c1 [ASLAN002],0.917
7,Nc1cc(C(F)(F)F)c(-c2cc(N3CCOCC3)nc(N3CCOCC3)n2)cn1 [buparlisib],0.294

# Same assay, conditions: 10 µM; days in culture: 382
row,Structure (SMILES),CTG-3D luminescence at 96 h
1,CC(C)n1nc(-c2ccc3oc(N)nc3c2)c2c(N)ncnc21 [sapanisertib],0.304
2,C[C@@H](Nc1cc(F)cc(F)c1)c1cc(C(=O)N(C)C)cc2c(=O)cc(N3CCOCC3)oc12 [AZD-8186],0.995
3,CC(=O)c1c(C)c2cnc(Nc3ccc(N4CCNCC4)cn3)nc2n(C2CCCC2)c1=O [palbociclib],1.66
4,Cc1c(CN2CCN(C(=O)[C@H](C)O)CC2)sc2c(N3CCOCC3)nc(-c3cnc(N)nc3)nc12 [apitolisib],0.258
5,CS(=O)(=O)CCNCc1ccc(-c2ccc3ncnc(Nc4ccc(OCc5cccc(F)c5)c(Cl)c4)c3c2)o1 [lapatinib],0.425
6,CCOc1ccn(-c2ccc(F)cc2)c(=O)c1C(=O)Nc1ccc(Oc2ccnc(N)c2Cl)c(F)c1 [ASLAN002],1.78
